These results are taken from US20250282798A1, “HETEROARYL-SUBSTITUTED BICYCLIC COMPOUND AND USE THEREOF” (Medshine Discovery Inc., priority 2022, published 2025).

pEC50, pIC50: −log10 of the molar value.

One test concerns the target human HPK1 (Homo sapiens (Human), UniProt Q92918). The experiment in a line: 33P isotope-labeled kinase activity assay (Method 1). In kind it is biochemical. Particulars: HPK1 enzyme concentration 8.1 nM; ATP concentration 15 μM. The procedure: Method 1: The IC50 value was assayed by ^33P isotope-labeled kinase activity assay to evaluate the inhibitory ability of a test compound on human HPK1.
Enzyme buffer conditions: 50 mM Hepes (pH 7.5), 10 mM MgCl2, 1 mM EGTA, 0.01% Brij35, 2 mM DTT.
Assay steps: A compound was diluted 3-fold with DMSO in a dilution plate, with a final initial concentration of […] and 10 concentration gradient points. The compound was diluted 50-fold into the kinase reaction buffer, and the mixture was shaken on a shaker for 20 minutes. The kinase was prepared with the enzyme reaction buffer. 2 μL of kinase was added to each well of a reaction plate. 1 μL of the diluted compound in the buffer was added to each well. The plate was sealed with a sealing film, centrifuged at 1000 g for 30 seconds, and placed at room temperature for 10 minutes. The mixed solution of ATP/MBP was prepared with the enzyme reaction buffer. 2 μL of the mixed solution of ATP/MBP was added to the reaction plate. The plate was sealed with a sealing film, and centrifuged at 1000 g for 30 seconds. The mixture in the plate was reacted at room temperature for 60 minutes. […] The plate was incubated at 25° C. for 40 min. […] The plate was incubated at 25° C. for 40 min. The RLU (relative luminescence unit) signal was read with a BMG microplate reader, and the signal intensity was used to characterize the activity of the kinase.

The next test relates to Jurkat cells. The experiment in a line: IL-2 assay of Jurkat cells (ELISA). Particulars: CD3/CD28 antibodies, 48 hours. In kind it is cell-based. The procedure: The concentration of Jurkat cells growing in the logarithmic phase was adjusted to 1×10^6/mL. 100 μL/well of the cells was taken and plated in a 96-well round-bottom plate coated with CD3 antibodies. The cells were treated with different concentrations of the compounds with the addition of CD28 antibodies for 48 hours. The supernatant of the cell culture was collected, diluted 5-fold, and added to an ELISA plate coated with IL-2. The enzyme-linked immunosorbent assay was performed according to the kit instructions (Dakewe, 1110202). OD570 and OD450 were read with Envision, and the data were analyzed by Prism.
For orientation: In an ELISA, binding on a coated surface is turned into a signal by an enzyme label.

Sequence of human HPK1 (Q92918 whole entry): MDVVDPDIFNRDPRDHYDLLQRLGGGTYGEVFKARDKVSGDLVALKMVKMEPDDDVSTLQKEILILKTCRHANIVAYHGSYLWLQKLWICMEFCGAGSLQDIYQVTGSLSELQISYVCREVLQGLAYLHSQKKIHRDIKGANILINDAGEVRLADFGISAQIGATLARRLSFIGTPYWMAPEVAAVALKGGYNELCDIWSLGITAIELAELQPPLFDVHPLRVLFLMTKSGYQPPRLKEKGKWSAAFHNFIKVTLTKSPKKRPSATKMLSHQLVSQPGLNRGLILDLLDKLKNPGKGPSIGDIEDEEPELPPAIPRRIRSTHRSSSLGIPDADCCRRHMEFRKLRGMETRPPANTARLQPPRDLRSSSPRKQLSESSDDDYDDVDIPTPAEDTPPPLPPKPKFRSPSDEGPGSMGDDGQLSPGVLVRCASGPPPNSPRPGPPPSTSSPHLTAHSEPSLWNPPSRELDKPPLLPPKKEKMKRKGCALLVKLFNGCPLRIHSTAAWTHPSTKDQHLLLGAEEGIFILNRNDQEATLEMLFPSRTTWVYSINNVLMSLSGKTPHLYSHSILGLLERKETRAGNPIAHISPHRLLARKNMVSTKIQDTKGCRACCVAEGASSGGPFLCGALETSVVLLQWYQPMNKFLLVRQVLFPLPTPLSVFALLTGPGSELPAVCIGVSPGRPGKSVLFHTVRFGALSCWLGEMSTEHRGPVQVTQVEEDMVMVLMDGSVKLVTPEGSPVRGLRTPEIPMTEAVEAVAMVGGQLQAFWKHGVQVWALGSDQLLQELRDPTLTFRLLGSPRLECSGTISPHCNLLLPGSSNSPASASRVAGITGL

On human HPK1, `Cn1ccc2c(-c3ccc(Nc4ccc5c(n4)OC[C@H]4CNCCN54)c4c3CNC4=O)ccnc21` [Compound 5] showed a negative-log IC50 (pIC50) of 8.52. The same compound showed a pEC50 in the test with Jurkat cells of 6.15.

Turning to `CCN1CCN2c3ccc(Nc4ccc(-c5ccnc6c5ccn6C)c5c4C(=O)NC5)nc3OC[C@H]2C1` [Compound 6], at human HPK1, the pIC50 is 8.10. Further, the negative-log EC50 (pEC50) in the test with Jurkat cells (Homo sapiens) is 6.49.

Broadly, the pIC50 is the negative decadic logarithm of the IC50, by convention in mol/L. High values mean a small IC50, low ones a large IC50. Broadly, the pEC50 is −log10 of the EC50, conventionally taken in molar units. Read a high pEC50 as a small EC50.
